For 21 compounds, Emax results are on record in US12036210B2, “Heteroaryl substituted beta-hydroxyethylamines for use in treating hyperglycaemia” (ATROGI AB, priority 2017, dated 2024).

The test system of one experiment is L6-myotubes. As to the kind of experiment: Glucose uptake (3H-2-deoxy-glucose) in differentiated L6-myotubes. The format is cell-based. As to conditions: agonist final concentration 1×10^−5, 50 nM 3H-2-deoxy-glucose, relative to isoproterenol, read-out: Biological example 1 (glucose uptake, activity compared to that of isoproterenol). On the procedure:
(§1) L6-myoblasts were grown in Dulbecco's Modified Eagle's Medium (DMEM) containing 4.5 g/I glucose supplemented with 10% fetal bovine serum, 2 mM L-Glutamine, 50 U/ml penicillin, 50 μg/ml streptomycin and 10 mM HEPES. Cells were plated at 1×10^5 cells per ml in 24-well plates. After reaching 90% confluence the cells were grown in medium containing 2% FBS for 7 days where upon cells differentiated into myotubes.
Differentiated L6-myotubes were serum-starved over night in medium containing 0.5% fatty-acid free BSA and stimulated with agonist, final concentration 1×10^−5. After 1 h 40 min cells were washed with warm, glucose free medium or PBS and another portion of agonist was added to glucose free medium. After 20 min the cells were exposed to 50 nM ^3H-2-deoxy-glucose for another 10 min before washed in ice cold glucose free medium or PBS and lysed in 0.2 M NaOH for 1 h in 60° C.

Experiment [1] has as its system Intracellular cAMP levels. Description: Measurement of intracellular cAMP levels in differentiated L6 cells (alpha screen cAMP kit). The note with it: Rattus norvegicus, L6, 0.25 h, agonist final concentration 1×10^−5 for 15 min, 1 mM IBMX, relative to isoproterenol, read-out: Biological example 2 (intracellular cAMP levels, activity compared to that of isoproterenol). It is filed as cell-based. On the procedure:
as §1
Differentiated cells were serum-starved over night and stimulated with agonist, final concentration 1×10^−5, for 15 min in stimulation buffer (HBSS supplemented with 1% BSA, 5 mM HEPES and 1 mM IBMX, pH 7.4) The medium was then aspirated and to end the reaction 100 μL of 95% EtOH was added to each well of a 24-well plate and cells were kept in −20° C. over night. The EtOH was let to evaporate and 500 μL of lysis buffer (1% BSA, 5 mM HEPES and 0.3% Tween-20, pH 7.4) was added to each well before put in −80° C. for 30 min and then kept in −20° C. Intracellular cAMP levels were detected using an alpha screen cAMP kit (6760635D from Perkin Elmer). The activity for each compound is compared to that of isoproterenol.

Counter-ions that a name gives are not always drawn. A value given as a limit tells only on which side of the number the result lay.

Regarding `CCCCNCC(O)c1cc[nH]c(=O)c1` (stereo not drawn) [Example 4, 4-(2-(Butylamino)-1-hydroxyethyl)pyridin-2(1H)-one acetate], the Emax was 50 to 75% in the experiment on L6-myotubes and less than 25% in experiment [1].

In the case of `CCCCNC[C@H](O)c1csc(C(F)(F)F)n1` [Example 2, (S)-2-(Butylamino)-1-(2-(trifluoromethyl)thiazol-4-yl)ethan-1-ol hydrochloride], the Emax was 25 to 50% in the experiment on L6-myotubes and less than 25% in experiment [1].

Consider `CC(C)(C)NC[C@H](O)c1ccncc1F` [Example 18, (R)-2-(tert-Butylamino)-1-(3-fluoropyridin-4-yl)ethan-1-ol], for which the Emax was 25 to 50% in the experiment on L6-myotubes and less than 25% in experiment [1].

`CCCCNC[C@H](O)c1csc(N)n1` [Example 1, (S)-1-(2-Aminothiazol-4-yl)-2-(butylamino)ethan-1-ol hydrochloride]: the Emax in the experiment on L6-myotubes was 25 to 50%; in experiment [1], less than 25%.

Regarding `CC(C)(C)NC[C@H](O)c1cncc(Cl)c1` [Example 19, (R)-2-(tert-Butylamino)-1-(5-chloropyridin-3-yl)ethan-1-ol], the values for the Emax (in the experiment on L6-myotubes; in experiment [1]) were greater than 75% and less than 25%, respectively.

In the case of `CCCCNCC(O)c1ccncc1` (stereo not drawn) [Example 6, 2-(Butylamino)-1-(pyridin-4-yl)ethan-1-ol], the Emax was 25 to 50% in the experiment on L6-myotubes and less than 25% in experiment [1].

As to `CCCCNC[C@H](O)c1ccnc(N)n1` [Example 5, (S)-1-(2-Aminopyrimidin-4-yl)-2-(butylamino)ethan-1-ol], the Emax in the experiment with L6-myotubes was 25 to 50%; in experiment [1], less than 25%.

On to `CCCCNC[C@H](O)c1cnc(N)nc1` [Example 11, (R)-1-(2-Aminopyrimidin-5-yl)-2-(butylamino)ethan-1-ol], for which the figures for the Emax (with L6-myotubes; in experiment [1]) were 50 to 75% and less than 25%, respectively.

As for `CCCCNC[C@H](O)c1cnc(NC(=O)C(C)C)s1` [Example 8, (S)—N-(5-(2-(Butylamino)-1-hydroxyethyl)thiazol-2-yl)isobutyramide], the values for the Emax (with L6-myotubes; in experiment [1]) were 25 to 50% and less than 25%, respectively.

For the compound `CC(C)(C)NC[C@H](O)c1ccc(Cl)cn1` [Example 21, (S)-2-(tert-Butylamino)-1-(5-chloropyridin-2-yl)ethan-1-ol dihydrochloride], the figures for the Emax (in the experiment with L6-myotubes; in experiment [1]) were 25 to 50% and less than 25%, respectively.

Regarding `CCCCNC[C@H](O)c1cnc(N)s1` [Example 9, (S)-1-(2-Aminothiazol-5-yl)-2-(butylamino)ethan-1-ol dihydrochloride], the Emax was 25 to 50% in the experiment with L6-myotubes and less than 25% in experiment [1].

Turning to `CC(C)(C)NC[C@H](O)c1ccc(O)cn1` [Example 12, (S)-6-(2-(tert-Butylamino)-1-hydroxyethyl)pyridin-3-ol], the figures for the Emax (in the experiment with L6-myotubes; in experiment [1]) were 50 to 75% and less than 25%, respectively.

Turning to `CC(C)(C)NCC(O)c1ccncc1O` (stereo not drawn) [Example 14, 4-(2-(tert-Butylamino)-1-hydroxyethyl)pyridin-3-ol hydrochloride], the figures for the Emax (in the experiment on L6-myotubes; in experiment [1]) were greater than 75% and less than 25%, respectively.

With `CCCCNCC(O)c1cccnc1` (stereo not drawn) [Example 7, 2-(Butylamino)-1-(pyridin-3-yl)ethan-1-ol], the Emax in the experiment on L6-myotubes is 50 to 75%; in experiment [1] it was less than 25%.

With `CC(C)(C)NC[C@H](O)c1cncc(O)c1` [Example 13, (R)-5-(2-(tert-Butylamino)-1-hydroxyethyl)pyridin-3-ol dihydrochloride], the Emax is greater than 75% in the experiment on L6-myotubes and less than 25% in experiment [1].

`CCCCNCC(O)c1ccc(=O)[nH]c1` (stereo not drawn) [Example 3, 5-(2-(Butylamino)-1-hydroxyethyl)pyridin-2(1H)-one]: the Emax in the experiment on L6-myotubes was 25 to 50%; in experiment [1] it was less than 25%.

Turning to `CCCCNC[C@H](O)c1cnc(NC(=O)C(C)C)nc1` [Example 10, (R)—N-(5-(2-(Butylamino)-1-hydroxyethyl)pyrimidin-2-yl)isobutyramide hydrochloride], the values for the Emax (with L6-myotubes; in experiment [1]) were 50 to 75% and less than 25%, respectively.

As to `CC(C)(C)NC[C@H](O)c1cncc(F)c1` [Example 17, (R)-2-(tert-Butylamino)-1-(5-fluoropyridin-3-yl)ethan-1-ol], the Emax was greater than 75% in the experiment with L6-myotubes and 25 to 50% in experiment [1].

Consider `CC(C)(C)NC[C@H](O)c1ccc(F)cn1` [Example 16, (S)-2-(tert-Butylamino)-1-(5-fluoropyridin-2-yl)ethan-1-ol], for which the values for the Emax (with L6-myotubes; in experiment [1]) were 50 to 75% and less than 25%, respectively.

For `Cn1ccc([C@@H](O)CNC(C)(C)C)cc1=O` [Example 15, (R)-4-(2-(tert-Butylamino)-1-hydroxyethyl)-1-methylpyridin-2(1H)-one], the Emax is greater than 75% in the experiment with L6-myotubes and less than 25% in experiment [1].

With `CC(C)(C)NC[C@H](O)c1ncccc1Cl` [Example 20, (S)-2-(tert-Butylamino)-1-(3-chloropyridin-2-yl)ethan-1-ol dihydrochloride], the Emax in the experiment on L6-myotubes is 25 to 50%; in experiment [1], less than 25%.
